Earlier results in patent publication US20120251462A1, “Agent For Smoker Dehabituation” (Cognis IP Management GmbH, priority 2011, published 2012).

Tested on: nACh receptors
Details: exceeds affinity of nicotine

For Clc1ccc(C2CC3CCC2N3)cn1 (stereo not shown) [Epibatidin], the “affinity for nACh receptors relative to nicotine” value is given as 120 fold.
